# Data published in PMC4529485 (Biochemistry, 2010).
# Target: myeloperoxidase (MPO) (Homo sapiens, UniProt P05164)
# Test: flash photolysis/recombination kinetics
# Format: binding
# Sequence of myeloperoxidase (MPO) (P05164 165-273): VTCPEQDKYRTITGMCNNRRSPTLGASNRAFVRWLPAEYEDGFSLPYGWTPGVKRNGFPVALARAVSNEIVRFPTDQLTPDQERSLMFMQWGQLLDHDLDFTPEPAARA
# Sequence of myeloperoxidase (MPO) (P05164 279-745): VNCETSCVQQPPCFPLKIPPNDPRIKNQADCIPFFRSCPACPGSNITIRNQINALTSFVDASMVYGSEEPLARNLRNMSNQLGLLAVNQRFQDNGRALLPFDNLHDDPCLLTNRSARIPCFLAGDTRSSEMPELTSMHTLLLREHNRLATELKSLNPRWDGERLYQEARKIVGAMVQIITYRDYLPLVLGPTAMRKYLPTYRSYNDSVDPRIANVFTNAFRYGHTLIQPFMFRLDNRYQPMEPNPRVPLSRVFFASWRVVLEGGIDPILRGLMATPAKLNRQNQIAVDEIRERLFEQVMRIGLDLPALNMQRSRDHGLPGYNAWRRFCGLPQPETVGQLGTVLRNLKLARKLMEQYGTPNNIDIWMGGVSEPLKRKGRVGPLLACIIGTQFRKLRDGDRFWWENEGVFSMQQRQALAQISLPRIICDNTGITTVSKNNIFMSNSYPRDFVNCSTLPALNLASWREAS
compound,measurement,value
[C-]#[O+] [CO],Kd,1.6 mM
